In ChEMBL document CHEMBL1201862, “PubChem BioAssay data set” (2004):
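In this assay, cells in 96-well plates receive the compound at five concentrations for 48 hours. Endpoints are linearly interpolated between the surrounding concentrations. Abbreviation: GI50, concentration required for 50% inhibition of growth.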 Active and inactive are the calls of the source. Cut-off read from the data, not from the text of the source: active = GI50 up to about 1.1 µM and inactive = higher.

Experiments:
Assay in all cases: NCI anticancer screen, dose series, 48 h
[1] = system: 786-0
[2] = system: HCC 2998
[3] = system: LOX IMVI
[4] = system: IGROV-1
[5] = system: DMS-114
[6] = system: MOLT-4
[7] = system: UACC-257
[8] = system: RXF 393
[9] = system: U-251
[10] = system: SK-MEL-2
[11] = system: M14
[12] = system: SF-268
[13] = system: TK-10
[14] = system: NCI-H522
[15] = system: SK-OV-3
[16] = system: K562
[17] = system: NCI/ADR-RES
[18] = system: T47D
[19] = system: MDA-MB-231
[20] = system: PC-3

Measured: GI50

O=C(CC1SC(Nc2ccccc2Cl)=NC1=O)Nc1ccc(Cl)cc1Cl (stereo not given)
inactive: [1] > 100 µM | [2] > 100 µM | [3] > 100 µM | [4] > 100 µM | [5] 78.2 µM | [6] > 100 µM | [7] > 100 µM | [8] > 100 µM | [9] > 100 µM | [10] 81.1 µM | [11] > 100 µM | [12] > 100 µM | [13] > 100 µM

CCCN1C(=O)CNC(=O)c2[nH]cnc21
inactive: [1] > 100 µM | [2] > 100 µM | [14] > 100 µM | [3] > 100 µM | [15] > 100 µM | [4] > 100 µM | [16] > 100 µM | [5] > 100 µM | [6] > 100 µM | [7] > 100 µM | [8] > 100 µM | [9] > 100 µM | [10] > 100 µM | [11] > 100 µM | [12] > 100 µM | [13] > 100 µM

CCOC(=O)Cc1nc2ccc3c(c2nc1O)C(=O)c1ccccc1C3=O
inactive: [1] 65.6 µM | [2] 46.7 µM | [14] 16.8 µM | [3] 25.5 µM | [15] 22.8 µM | [4] 16.9 µM | [16] 32.4 µM | [5] 20.5 µM | [6] 5.45 µM | [7] 65.8 µM | [8] 8.09 µM | [9] 48.4 µM | [10] 76.4 µM | [11] 77.3 µM | [12] 38.5 µM | [13] 31.7 µM

CN1N=C(Nc2ccccc2)Sc2c1cnn(-c1ccccc1)c2=O
inactive: [1] > 100 µM | [2] > 100 µM | [3] 87.3 µM | [15] > 100 µM | [4] > 100 µM | [16] 30.6 µM | [5] 30.4 µM | [6] > 100 µM | [7] > 100 µM | [8] > 100 µM | [9] > 100 µM | [10] > 100 µM | [11] > 100 µM | [13] > 100 µM

CSc1ccc2c(cc1=O)C(NC(=O)c1ccc(C#N)cc1)CCc1cc(O)c(O)c(O)c1-2 (stereo not given)
inactive: [1] 37.2 µM | [2] 21.8 µM | [14] 15.7 µM | [15] 27.4 µM | [16] 7.26 µM | [5] 14.8 µM | [6] 22.5 µM | [7] 12.2 µM | [9] 19.5 µM | [11] 30 µM | [12] 43.4 µM | [13] 63 µM

COc1ccc(C2N3CCCCC3[C@@H]3c4[nH]c5ccccc5c4CCN23)c(OC)c1 (stereo not given in full)
inactive: [1] 33.7 µM | [15] 30.4 µM | [4] 45.1 µM | [16] 26.7 µM | [5] 18.7 µM | [6] 21 µM | [7] 26.2 µM | [8] 14.1 µM | [9] 28.4 µM | [10] 14.6 µM | [11] 16.8 µM | [12] 21.1 µM | [13] 25.2 µM

CCc1cc2c(Nc3ccccc3)c3c(nc2s1)CCCC3
inactive: [1] 29.2 µM | [2] > 100 µM | [3] 11.4 µM | [15] > 100 µM | [4] > 100 µM | [16] 3.41 µM | [5] 27.5 µM | [6] 3.23 µM | [7] > 100 µM | [8] 22.4 µM | [9] 22 µM | [10] > 100 µM | [11] > 100 µM | [12] 76.6 µM | [13] > 100 µM

Cc1cnc[nH]c1=O
inactive: [1] > 100 µM | [2] > 100 µM | [14] > 100 µM | [3] > 100 µM | [15] > 100 µM | [4] > 100 µM | [16] > 100 µM | [5] > 100 µM | [6] > 100 µM | [7] > 100 µM | [9] > 100 µM | [10] > 100 µM | [11] > 100 µM | [12] > 100 µM | [13] > 100 µM

Cc1ccc(Oc2ccc([N+](=O)[O-])cc2[N+](=O)[O-])c(C)c1
inactive: [1] 71.8 µM | [2] > 100 µM | [15] > 100 µM | [4] > 100 µM | [16] 30.5 µM | [5] 26.2 µM | [6] 21.5 µM | [7] 26.1 µM | [8] 20.5 µM | [9] 34.8 µM | [10] 56.9 µM | [11] 48.6 µM | [13] 96.4 µM

CSc1nc(NC2OCC(OC(C)=O)C(OC(C)=O)C2OC(C)=O)c(/N=C(\C)C(C)=O)c(=O)n1C (stereo not given)
inactive: [1] > 100 µM | [2] > 100 µM | [3] > 100 µM | [15] > 100 µM | [4] > 100 µM | [16] > 100 µM | [5] > 100 µM | [6] > 100 µM | [7] > 100 µM | [8] > 100 µM | [9] > 100 µM | [10] > 100 µM | [11] > 100 µM | [13] > 100 µM

COc1ccc(-c2cc(=O)c3c(O)c(OC)c(O)c(OC)c3o2)cc1OC
inactive: [1] > 100 µM | [2] > 100 µM | [14] 12 µM | [15] 80 µM | [4] 84.3 µM | [16] 45.9 µM | [5] > 100 µM | [6] 42.3 µM | [7] > 100 µM | [8] 14.1 µM | [9] 49.9 µM | [11] > 100 µM | [12] 90.2 µM

CC(=O)OC1CC2C(C)(C)OC(=O)CC(OC(C)=O)[C@]2(C)C2CCC3(C)C(=CCC3c3ccoc3)[C@]12C (stereo not given in full)
inactive: [1] 19.4 µM | [2] 18.4 µM | [14] 15.6 µM | [3] 28.7 µM | [15] 21.7 µM | [4] 24.5 µM | [16] 14 µM | [5] 19.6 µM | [6] 5.9 µM | [8] 24 µM | [9] 37.6 µM | [10] 10.9 µM | [11] 18.9 µM | [12] 21.1 µM | [13] 49 µM

CCCC1=C(CC)C(C(=O)Nc2c(C)cccc2C)=NC(S)N1 (stereo not given)
inactive: [1] > 100 µM | [14] > 100 µM | [4] > 100 µM | [16] > 100 µM | [5] > 100 µM | [6] > 100 µM | [7] > 100 µM | [9] > 100 µM | [10] > 100 µM | [11] > 100 µM | [12] > 100 µM | [13] > 100 µM

O=C1NC2C(=O)N(Cc3ccccc3)C(=O)C2N1 (stereo not given)
inactive: [1] > 100 µM | [2] > 100 µM | [14] > 100 µM | [3] > 100 µM | [15] > 100 µM | [4] > 100 µM | [16] > 100 µM | [5] > 100 µM | [6] > 100 µM | [7] > 100 µM | [8] > 100 µM | [9] > 100 µM | [11] 37.8 µM | [12] > 100 µM | [13] > 100 µM

Nc1cc2c3c(cccc3c1)C(=O)N(CCN1CCN(CCN3C(=O)c4cccc5cc(N)cc(c45)C3=O)CC1)C2=O
inactive: [1] > 100 µM | [2] > 100 µM | [14] > 100 µM | [15] > 100 µM | [4] > 100 µM | [16] > 100 µM | [5] > 100 µM | [6] 25.3 µM | [7] > 100 µM | [8] > 100 µM | [9] > 100 µM | [10] > 100 µM | [11] 98.9 µM | [12] 91.2 µM | [13] > 100 µM

CSc1nnc(SCc2nn3c(=O)cc(C)nc3s2)s1
inactive: [1] > 100 µM | [2] > 100 µM | [17] > 100 µM | [14] > 100 µM | [3] > 100 µM | [15] > 100 µM | [4] > 100 µM | [16] > 100 µM | [6] > 100 µM | [18] > 100 µM | [19] > 100 µM | [7] > 100 µM | [8] 66.8 µM | [9] > 100 µM | [20] > 100 µM | [10] > 100 µM | [11] > 100 µM | [12] > 100 µM | [13] > 100 µM

CN(C)CC1CCCCCCCCCCCCC(CN(C)C)C1=O (stereo not given)
inactive: [1] 10.1 µM | [2] 10.2 µM | [3] 8.43 µM | [15] 17.7 µM | [4] 17.3 µM | [5] 16.9 µM | [6] 2.09 µM | [7] 16.3 µM | [8] 11.2 µM | [9] 14.3 µM | [10] 12.4 µM | [11] 13.2 µM | [12] 12.7 µM | [13] 14.7 µM

O=C1OC(c2ccccc2)=N/C1=C\c1cc(Cl)ccc1Cl
inactive: [1] 62.2 µM | [2] > 100 µM | [14] > 100 µM | [4] > 100 µM | [16] 18.1 µM | [5] 49.8 µM | [6] 23 µM | [7] > 100 µM | [8] > 100 µM | [9] 70.8 µM | [10] > 100 µM | [11] 32.6 µM | [12] 66.2 µM

COC(=O)C12CC3CC(C1)CC(C(=O)OC)(C3)C2
inactive: [1] > 100 µM | [2] > 100 µM | [14] > 100 µM | [3] > 100 µM | [15] > 100 µM | [4] > 100 µM | [5] > 100 µM | [6] > 100 µM | [7] > 100 µM | [9] > 100 µM | [11] > 100 µM | [12] > 100 µM | [13] > 100 µM
